What was measured:
PKC [1] = conditions: granule cells; Vaccarino et al. 1987; cited from earlier work
granule cells = conditions: literature; cited from earlier work
[2] = system: glutamate high affinity recognition site; conditions: literature; cited from earlier work
[3H]-P(Bt02) bond = literature; cited from earlier work
protein-kinase C (PKC) = experiment: Glutamate-induced PKC translocation, [3H]-P(BtO)2 bond in intact primary cerebellar granule cells; type: cell-based, Sprague-Dawley rats; conditions: for IC50: 2 h pre-incubation at 37° C., 1 μM glutamate, absence of Mg2+, read-out: PKC inhibition (ED50), glutamate-induced PKC translocation
Method: Translocation of PKC can be measured by assessment of the bond sites of 4-B-[3H]-phorbol 12,13-dibutyrate [3H]-P(Bt02) in intact cells.
(§5) Primary cultures were prepared with granule cells from 8-day-old Sprague-Dawley rats (Zivic Miller). […] The cultures were used for the experiments on the 8th and 9th days in vitro.
After 2 hours' incubation at 37° C. of the cells with or without the compounds (see above), the monolayers were washed once and the [^3 H]-P(BtO2) bond was assessed in the presence of 1 μM of glutamate and in the absence of Mg^2 +. […] Preliminary experiments have shown that balance is reached within 10 minutes, so the monolayers were incubated with [^3 H]-P(Bt0)2 for 15 minutes at 22° C. […] After incubation, the cells were washed three times with cold Locke's solution, and then suspended with 0.1M NaOH. Aliquots of the suspension were then used for protein determination (9) and liquid scintillation count. The nonspecific bond was determined in the presence of 2 μM phorbol 12-tetradecanoate 13-acetate (PTA).

[3] = system: primary granule cell cultures; experiment: Protection from glutamate-induced neuronal toxicity in primary granule cell cultures; type: cell-based, Sprague-Dawley rats
Method: as §5
Monolayers of intact granule cells were pre-incubated with various compounds at various concentrations for 2 hours at 37° C. […] Cell survival was assessed by histochemical techniques after 24 hours. In particular, cell viability was assessed after fluorescein staining, which gives green fluorescence to vital cells and red fluorescence to nonvital ones.

[4] = Neurotoxicity of the compounds themselves in culture in the absence of glutamate; type: cell-based, Sprague-Dawley rats; conditions: rat, cerebellar granule cells; 24 hours, absence of glutamate; read-out: Neurotoxicity in 24 hours (ED50)
Method: (§1) The following experiments show studies carried out with N-dichloroacetylsphingosine, in comparison to sphingosine. In particular, their effects on PKC translocation and glutamate-induced neuronal toxicity in primary granule cell cultures were observed. Possible cytotoxic effects of the products were assessed according to their neurotoxic effects in cerebellar cells in culture, as well as hemolysis.
(§2) Primary cultures were prepared with granule cells from 8-day-old Sprague-Dawley rats (Zivic Miller). These cultures have a granule cell content of >90%, 5% of GABAergic neurons [Gallo V. et al., Proc. Natl. Acad. Sci. USA 79, 7919-7923 (1982)] and <5% of glia cells [Vaccarino F. M. et al., J. Neurosci. 7, 65-76 (1987)]. The cultures were used for the experiments on the 8th and 9th days in vitro.
(§3) On the 8th and 9th days in vitro, sphingosines and N-dichloroacetylsphingosines at various concentrations (1-100μM) were added to the cultures. In particular, monolayers of granule cells were pre-incubated with these compounds in Locke's solution (1 ml) for 2 hrs at 37° C. The sphingosine was dissolved in ethanol, stored as an equimolar complex with bovine serum albumin (BSA) with no fatty acids, and diluted directly with the Locke's solution used to preincubate the cells. The N-dichloroacetylsphingosine was dissolved in DMSO and diluted directly in Locke's solution (as noted above). Aliquots of the dilutions were dried in a flow of N2, after which Locke's solution was added until the desired concentration was reached.
(§4) Possibile cytotoxicity of the compounds themselves was calculated by assessing the toxicity in the […] cultures in the absence of glutamate. The experiments and techniques used were those described above, with the difference that glutamate was omitted. The possible hemolytic effects of the compounds were also assessed. Samples of blood were taken from 4 volunteers. Each sample was subdivided into three test tubes as follows: […]

[5] = system: cerebellar cells in culture; experiment: as above; type: cell-based, Sprague-Dawley rats; conditions: compared with concentrations antagonizing PKC translocation and neuronal toxicity induced by glutamate
Method: as §1, §2, §3, §4

blood = experiment: Hemolysis in blood of volunteers (cyanomethahemoglobin method); type: cell-based, human (volunteers); conditions: 45 minutes at 37° C., various concentrations, vs plasma negative control; FIGURE
PKC [6] = conditions: literature (Hannun, Merril, Wilson); cited from earlier work

Compound	Effect on glutamate-induced translocation and activation of PKC (PKC [1])	Protection from glutamate-induced cell damage (granule cells)	Interference with the glutamate bond at its high affinity recognition site [2]	Interference with the [3H]-P(Bt02) bond ([3H]-P(Bt02) bond)	Inhibition of glutamate-induced PKC translocation (in words) (protein-kinase C (PKC))	IC50 (protein-kinase C (PKC))	Reduction of cell toxicity induced by glutamate (in words) ([3]; 50 μM glutamate)	EC50 ([3]; Rattus norvegicus, 2 h pre-incubation at 37° C., 50 μM glutamate 15 min without Mg2+, survival after 24 hours, read-out: Protection from glutamate (ED50), neuronal toxicity induced by glutamate)	CC50 at 24 h [4]	Neurotoxicity of the compound itself (in words) [5]	Hemolysis (blood)	Effect on activity and translocation of PKC (PKC [6])
trisialosyl-N-tetra-glycosylceramide [GT1b]	inhibits the translocation and activation of PKC induced by glutamate	offer protection from glutamate-induced cell damage	do not interfere with the glutamate bond up to its high affinity recognition site	do not interfere with the glutamate bond up to its high affinity recognition site or with the [3H]-P(Bt02) bond	–	–	–	–	–	–	–	–
CCCCCCCCCCCCC/C=C/[C@@H](O)[C@H](CO)NC(=O)C(Cl)Cl [N-dichloroacetylsphingosine, N-DICHLOROACETYL SPHINGOSINE]	–	–	–	–	inhibited glutamate-induced PKC translocation	30 µM	significantly reducing cell toxicity induced by glutamate	30 µM	> 100 µM	either no toxicity at all, or toxicity at significantly higher concentrations than those able to antagonize translocation induced by glutamate (column 1) as well as the neuronal toxicity induced by glutamate	does not cause hemolysis	–
CCCCCCCCCCCCC/C=C/[C@@H](O)[C@@H](N)CO [Sphingosine]	–	–	–	–	–	20 µM	–	–	10 to 20 µM	–	contrary to sphingosine, does not cause hemolysis	inhibit the activity and translocation of PKC
monosialosyl-N-tetra-glycosylceramide [GM1]	inhibits the translocation and activation of PKC induced by glutamate	offer protection from glutamate-induced cell damage	do not interfere with the glutamate bond up to its high affinity recognition site	do not interfere with the glutamate bond up to its high affinity recognition site or with the [3H]-P(Bt02) bond	–	–	–	–	–	–	–	–

Reference: patent publication US5519007A, “Lysosphingolipid derivatives” (Fidia, S.p.A., priority 1988, dated 1996)
